Assays:
formalin-injected mice [1] = assay: Formalin-induced chronic pain-like state (CPLS): persistent hypersensitivity to heat and mechanical stimuli; type: in vivo, mouse
formalin-injected mice [2] = assay: Formalin-induced paw edema; type: in vivo, mouse
Method: Paw edema was measured with a digital caliper (Fisher Scientific, USA) and is expressed as the difference (A paw thickness, mm) between ipsilateral and contralateral paws.

formalin-injected mice [3] = assay: Elevated plus maze test (anxiety-like behavior) after formalin; type: in vivo, mouse; details: ARN19702 30 mg-kg^−1 IP once daily for 3 days starting 24 h after formalin; PFD7
Method: (§1) Elevated plus maze test: We placed each mouse in the central platform of the maze, facing the open arm opposite to the experimenter, and behavior was recorded using the Debut video capture software (NCH Software, Canberra, Australia). A blinded observer measured the amount of time spent in the open and closed arms, as well as the number of open and closed arm entries. The open arms of the maze were illuminated at 150-170 lux and the closed arms at 40-50 lux.
as §1, with “lux. The anxiety index was calculated as follows: […]” for “lux.”

[4] = Body-weight gain after formalin; type: in vivo, mouse; details: ARN19702 30 mg-kg^−1 IP once daily for 3 days starting 24 h after formalin; PFD14
[5] = system: spinal-cord transcription; assay: RNA sequencing and metabolomic analysis of L4-L6 spinal cord; type: in vivo, mouse; details: systemic ARN19702 administration on PFD2-3
Method: RNA sequencing and bioinformatics analysis: We extracted total RNA with the RNeasy Mini Kit (Qiagen). Samples with RNA integrity number ≥8.5 were kept for library construction. cDNA synthesis, amplification, library construction, and sequencing were performed at Novogene (Bejing, China) using the Illumina NovaSeq platform with paired-end 150 bp (PE 150) sequencing strategy. Downstream analysis was performed using a combination of programs including STAR, HTseq, Cufflink and Novogene's wrapped scripts. Alignments were parsed using the STAR program and differential expressions were determined using DESeq2/edgeR. Gene Ontology (GO) and Kyoto Encyclopedia of Genes and Genomes (KEGG) enrichment were implemented using the ClusterProfiler.
Metabolomic analysis: Metabolomics analyses were performed at the West Coast Metabolomics Center of the University of California Davis, as described^55. Briefly, frozen lumbar spinal cord (L4-L6) fragments (˜5 mg) were homogenized in Eppendorf tubes (2 ml) for 2 min using metal spheres ([…] diameter) in a MM300 mill (Retsch, Germany). A mixture of isopropanol/acetonitrile/water (3/3/2, vol) was added to the grounded tissue (1 ml per 20 mg), stirred for 10 s and shaken at 4° C. for 5 min. […]

[6] = as effectively as does ARN077; cited from earlier work
[7] = pretreatment, ARN16186 10 mg-kg^−1 IP, ARN19702 30 mg-kg^−1 IP, wild-type mice, 1% formalin

Question: With `CCS(=O)(=O)c1ccccc1C(=O)N1CCN(c2nc3ccc(F)cc3s2)C[C@@H]1C` [ARN19702] as the molecule, how does the “protection from CPLS consolidation” value (formalin-injected mice [1]; ARN19702 30 mg-kg^−1 IP given on PFD1 or PFD5 to PFD9) read?
Answer: no such effect

Question: And the “protection from CPLS consolidation” value (formalin-injected mice [1]; ARN19702 30 mg-kg^−1 IP given on PFD2)?
Answer: partially effective

Question: And the “protection from CPLS consolidation” value (formalin-injected mice [1]; ARN19702 30 mg-kg^−1 IP given once on PFD3 or PFD4)?
Answer: full protection

Question: What about the “sex dependence of the protective effects (contralateral hyperalgesia in female mice)” value (formalin-injected mice [1]; ARN19702 30 mg-kg^−1 IP once daily PFD1 to PFD3) of the same molecule?
Answer: not sex-dependent

Question: And the CPLS consolidation (formalin-injected mice [1]; ARN19702 30 mg-kg^−1 IP once daily for 3 consecutive days starting 24 h after formalin, male mice)?
Answer: effectively halted

Question: What about the “evoked hypersensitivity (sensory responses)” value (formalin-injected mice [1]; ARN19702 30 mg-kg^−1 IP once daily for 3 days starting 24 h after formalin, male mice) of the same molecule?
Answer: normalizing

Question: What about the “pain behaviors (acute effect)” value (formalin-injected mice [1]; ARN19702 30 mg-kg^−1 IP, at all time points PFD1 to PFD9) of the same molecule?
Answer: temporarily attenuated

Question: And the “transition to CPLS in PPAR-α-null mice” value (formalin-injected mice [1]; ARN19702 30 mg-kg^−1 IP, Ppara^−/− mice, PFD14)?
Answer: unaffected

Question: What about the “persistent hypersensitivity (CPLS) elicited by formalin” value (formalin-injected mice [1]; post-injury intrathecal infusion, 30 ng, 5 μL, at PFD2 and PFD4, assessed PFD14) of the same molecule?
Answer: stopped

Question: And the “NAAA-null phenotype (weakened nocifensive response, no inflammation or persistent hypersensitivity after formalin)” value (formalin-injected mice [1]; pretreatment of wild-type mice, ARN19702 30 mg-kg^−1 IP, ARN16186 10 mg-kg^−1 IP)?
Answer: recapitulated

Question: And the “persistent contralateral hyperalgesia (PFD14)” value (formalin-injected mice [1]; [7])?
Answer: prevents

Question: What about the “paw edema (PFD14)” value (formalin-injected mice [2]; [7]) of the same molecule?
Answer: prevents

Question: What about the paw edema (formalin-injected mice [2]; three-day ARN19702 regimen (30 mg-kg^−1 IP) after formalin, PFD14) of the same molecule?
Answer: no detectable influence

Question: What about the anxiety-like behavior (formalin-injected mice [3]) of the same molecule?
Answer: normalizing

Question: And the body-weight gain [4]?
Answer: normalizing

Question: What about the “transcriptional and metabolic changes in L4-L6 spinal cord on the following day” value [5] of the same molecule?
Answer: prevented the appearance

Question: And the “nociceptive behavior evoked by formalin or CCI” value [6]?
Answer: suppresses
